Values quoted from earlier work, collected in patent EP0374725A2, “Transdermal therapeutic system having norpseudoephedrine as the active compound” (LTS Lohmann Therapie-Systeme GmbH & Co. KG, priority 1988, dated 1990).

Conditions: background statement, amphetamines as medium-strong bases

Structure (SMILES): C[C@H](N)[C@@H](O)c1ccccc1 [D-Norpseudoephedrin]
- pka-Wert: 8,9
